Drawing on ChEMBL document CHEMBL4304811, “Development of a Water-Soluble Indolylmaleimide Derivative IM-93 Showing Dual Inhibition of Ferroptosis and NETosis” (ACS Med Chem Lett, 2019), this text covers Activity and inhibition for one compound.

Assay [1] concerns the target Cyclin-dependent kinase 19 (Homo sapiens) (UniProt Q9BWU1). The experiment in a line: Binding affinity to wild-type human partial length CDK11 (M1 to N360 residues) expressed in bacterial expression system assessed as residual binding level at 10 uM by Kinomescan method relative to control.
For assay [2], the target named is Tyrosine-protein kinase HCK (Homo sapiens) (UniProt P08631). The experiment in a line: Binding affinity to wild-type human full length HCK (M22 to P526 residues) expressed in bacterial expression system assessed as residual binding level at 10 uM by Kinomescan method relative to control.
The target of assay [3] is Tyrosine-protein kinase JAK3 (Homo sapiens) (UniProt P52333). The experiment in a line: Binding affinity to wild-type human partial length JAK3 JH1 catalytic domain (I781 to S1124 residues) expressed in mammalian expression system assessed as residual binding level at 10 uM by Kinomescan method relative to control.
In assay [4] the target is Dual specificity mitogen-activated protein kinase kinase 4 (Homo sapiens) (UniProt P45985). The assay can be described thus: Binding affinity to wild-type human partial length MEK4 (S84 to D399 residues) expressed in mammalian expression system assessed as residual binding level at 10 uM by Kinomescan method relative to control.
Assay [5] concerns the target Serine/threonine-protein kinase 3 (Homo sapiens) (UniProt Q13188). The experiment in a line: Binding affinity to wild-type human partial length MST2 (D17 to E318 residues) expressed in bacterial expression system assessed as residual binding level at 10 uM by Kinomescan method relative to control.
For assay [6], the target named is Serine/threonine-protein kinase SBK1 (Homo sapiens) (UniProt Q52WX2). The experiment in a line: Binding affinity to wild-type human partial length SBK1 (P23 to P348 residues) expressed in mammalian expression system assessed as residual binding level at 10 uM by Kinomescan method relative to control.
The next assay has as its system THP-1. The assay can be described thus: Inhibition of Staphylococcus aureus-induced pyroptosis in human THP1 cells at 10 uM preincubated for 1 hr followed by bacterial infection and measured after 2 hrs by INT dye based LDH assay. Type of assay: functional, cell-based.

Molecules are shown by their SMILES. Calls of active or inactive are those of the source. The calls are words filed in the database; no cut-off is given here.

Chain of Dual specificity mitogen-activated protein kinase kinase 4 (Homo sapiens) (P45985 whole entry, the tested form may be a part): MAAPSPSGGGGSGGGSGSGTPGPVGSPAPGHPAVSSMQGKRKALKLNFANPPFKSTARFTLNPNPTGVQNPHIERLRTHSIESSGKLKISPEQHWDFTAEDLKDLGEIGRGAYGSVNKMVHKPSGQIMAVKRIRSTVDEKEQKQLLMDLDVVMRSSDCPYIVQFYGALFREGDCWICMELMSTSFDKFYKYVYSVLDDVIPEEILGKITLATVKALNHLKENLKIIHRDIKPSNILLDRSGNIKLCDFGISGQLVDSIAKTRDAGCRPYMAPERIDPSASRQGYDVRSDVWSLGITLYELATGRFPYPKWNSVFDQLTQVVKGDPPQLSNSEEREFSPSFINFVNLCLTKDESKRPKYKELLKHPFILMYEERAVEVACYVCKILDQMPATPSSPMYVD
Chain of Cyclin-dependent kinase 19 (Homo sapiens) (Q9BWU1 whole entry, the tested form may be a part): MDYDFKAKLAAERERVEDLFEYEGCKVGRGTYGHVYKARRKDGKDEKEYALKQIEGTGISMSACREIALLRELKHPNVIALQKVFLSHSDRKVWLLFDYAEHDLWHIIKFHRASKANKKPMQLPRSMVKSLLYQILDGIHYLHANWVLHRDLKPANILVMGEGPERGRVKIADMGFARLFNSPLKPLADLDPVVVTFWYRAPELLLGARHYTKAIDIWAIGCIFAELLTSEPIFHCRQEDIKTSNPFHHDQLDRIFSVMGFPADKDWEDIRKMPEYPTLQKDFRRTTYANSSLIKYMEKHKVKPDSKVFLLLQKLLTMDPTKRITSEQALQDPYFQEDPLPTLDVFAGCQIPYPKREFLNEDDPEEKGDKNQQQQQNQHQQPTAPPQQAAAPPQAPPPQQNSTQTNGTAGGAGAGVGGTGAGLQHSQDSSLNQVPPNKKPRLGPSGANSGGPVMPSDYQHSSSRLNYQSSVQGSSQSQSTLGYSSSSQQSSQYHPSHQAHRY
Chain of Tyrosine-protein kinase JAK3 (Homo sapiens) (P52333 whole entry, the tested form may be a part): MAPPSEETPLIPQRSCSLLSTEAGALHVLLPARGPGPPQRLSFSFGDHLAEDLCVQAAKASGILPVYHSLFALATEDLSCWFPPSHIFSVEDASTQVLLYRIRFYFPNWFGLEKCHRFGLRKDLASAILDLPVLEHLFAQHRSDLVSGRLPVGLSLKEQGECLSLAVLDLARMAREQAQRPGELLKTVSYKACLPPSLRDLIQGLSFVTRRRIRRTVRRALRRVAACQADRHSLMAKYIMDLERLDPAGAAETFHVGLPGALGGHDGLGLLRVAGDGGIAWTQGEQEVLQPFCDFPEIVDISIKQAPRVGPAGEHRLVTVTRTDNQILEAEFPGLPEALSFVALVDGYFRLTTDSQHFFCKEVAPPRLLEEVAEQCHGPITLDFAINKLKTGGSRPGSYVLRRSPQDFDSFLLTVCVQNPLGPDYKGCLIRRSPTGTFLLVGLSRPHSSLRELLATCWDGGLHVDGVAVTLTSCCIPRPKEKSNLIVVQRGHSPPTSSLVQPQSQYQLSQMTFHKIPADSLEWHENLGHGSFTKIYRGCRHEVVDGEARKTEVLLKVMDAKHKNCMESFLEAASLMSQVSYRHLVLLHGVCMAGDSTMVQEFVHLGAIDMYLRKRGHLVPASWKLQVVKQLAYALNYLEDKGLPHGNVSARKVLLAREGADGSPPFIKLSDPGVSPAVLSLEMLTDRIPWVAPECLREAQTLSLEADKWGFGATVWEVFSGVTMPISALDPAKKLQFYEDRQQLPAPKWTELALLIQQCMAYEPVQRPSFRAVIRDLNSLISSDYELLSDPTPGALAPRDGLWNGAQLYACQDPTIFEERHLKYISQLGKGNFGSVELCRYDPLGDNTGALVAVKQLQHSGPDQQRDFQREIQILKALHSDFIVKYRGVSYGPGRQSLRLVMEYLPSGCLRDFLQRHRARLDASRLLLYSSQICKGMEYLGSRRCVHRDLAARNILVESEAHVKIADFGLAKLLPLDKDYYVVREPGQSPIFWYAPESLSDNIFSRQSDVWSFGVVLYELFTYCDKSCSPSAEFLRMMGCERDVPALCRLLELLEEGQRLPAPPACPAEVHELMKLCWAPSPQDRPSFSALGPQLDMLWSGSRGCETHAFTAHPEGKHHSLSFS
Chain of Tyrosine-protein kinase HCK (Homo sapiens) (P08631 2-526 limits assumed): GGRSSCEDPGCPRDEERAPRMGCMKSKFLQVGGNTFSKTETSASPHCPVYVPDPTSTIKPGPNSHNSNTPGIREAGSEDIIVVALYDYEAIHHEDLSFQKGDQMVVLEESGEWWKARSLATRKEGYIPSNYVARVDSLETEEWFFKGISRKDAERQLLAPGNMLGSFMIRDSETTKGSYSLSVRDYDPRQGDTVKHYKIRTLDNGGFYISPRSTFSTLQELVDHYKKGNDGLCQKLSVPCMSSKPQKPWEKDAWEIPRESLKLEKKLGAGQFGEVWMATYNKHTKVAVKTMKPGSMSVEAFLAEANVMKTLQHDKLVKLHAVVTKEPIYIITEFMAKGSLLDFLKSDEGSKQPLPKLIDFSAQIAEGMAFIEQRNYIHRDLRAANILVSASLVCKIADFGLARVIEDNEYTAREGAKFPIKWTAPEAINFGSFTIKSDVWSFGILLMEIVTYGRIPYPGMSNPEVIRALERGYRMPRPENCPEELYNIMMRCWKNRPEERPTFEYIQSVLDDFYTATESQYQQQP
Chain of Serine/threonine-protein kinase 3 (Homo sapiens) (Q13188 whole entry, the tested form may be a part): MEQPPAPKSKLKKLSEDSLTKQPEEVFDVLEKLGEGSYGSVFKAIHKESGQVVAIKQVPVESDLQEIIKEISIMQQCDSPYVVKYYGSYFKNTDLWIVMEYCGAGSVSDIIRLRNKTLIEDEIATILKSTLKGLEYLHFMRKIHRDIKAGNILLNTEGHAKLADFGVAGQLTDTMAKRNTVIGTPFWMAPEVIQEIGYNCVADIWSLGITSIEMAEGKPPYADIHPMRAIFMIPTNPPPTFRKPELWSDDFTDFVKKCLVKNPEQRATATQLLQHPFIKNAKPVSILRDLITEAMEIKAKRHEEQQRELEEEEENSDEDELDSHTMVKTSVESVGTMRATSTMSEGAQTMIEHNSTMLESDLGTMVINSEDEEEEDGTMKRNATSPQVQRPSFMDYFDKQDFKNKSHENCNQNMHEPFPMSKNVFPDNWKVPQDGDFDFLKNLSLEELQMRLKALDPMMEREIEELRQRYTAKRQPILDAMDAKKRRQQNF
Chain of Serine/threonine-protein kinase SBK1 (Homo sapiens) (Q52WX2 whole entry, the tested form may be a part): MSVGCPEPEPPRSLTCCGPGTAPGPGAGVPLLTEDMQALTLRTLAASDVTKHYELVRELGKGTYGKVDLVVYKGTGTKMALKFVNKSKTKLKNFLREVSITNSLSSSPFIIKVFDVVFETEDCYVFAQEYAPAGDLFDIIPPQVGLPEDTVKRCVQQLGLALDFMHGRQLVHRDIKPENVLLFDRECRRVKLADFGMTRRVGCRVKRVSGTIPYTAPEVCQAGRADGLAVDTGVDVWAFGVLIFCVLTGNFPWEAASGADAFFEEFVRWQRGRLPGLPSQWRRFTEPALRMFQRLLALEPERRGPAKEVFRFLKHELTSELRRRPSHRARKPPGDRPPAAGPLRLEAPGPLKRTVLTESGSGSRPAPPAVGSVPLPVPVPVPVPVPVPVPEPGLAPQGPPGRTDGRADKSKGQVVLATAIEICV

`CC(C)N1C(=O)C(NCCCN(C)C)=C(c2cn(C)c3ccccc23)C1=O.Cl`: the Activity in assay [1] worked out at 94%; in assay [2] it was 100%; in assay [3] it was 81%; in assay [4], 100%; in assay [5], 100%; in assay [6] it was 100%. In the assay on THP-1, the inhibition result was “inactive”.
